Patent US20100267561A1, “HERBICIDAL PYRIDAZINONE DERIVATIVES” (priority 2007, published 2010)
Read-outs that look alike come from different tables or passages of the source.

Experiments:
Type in all cases: in vivo
rice (Oryza sativa) = assay: Test B flooded paddy test plant response
Summary of the method: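 Rice, umbrella sedge, ducksalad and barnyardgrass at 2-leaf stage; pots flooded to 3 cm, compounds applied into paddy water, depth held throughout. Greenhouse 13 to 15 days, then visual rating vs untreated controls on 0–100 scale (0 no effect, 100 complete control); dash means no test result.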

[1] = system: giant foxtail (Setaria faberii); assay: Test B pre-/postemergence plant response; details: for Foxtail, Giant plant response rating: 8 g ai/ha
Summary of the method: (§1)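 Visual scoring from 0 (no effect) to 100 (complete control) against untreated controls was done 13 to 15 days after greenhouse treatment. Chemicals were formulated in a surfactant-containing non-phytotoxic solvent and applied to soil preemergence or to 1- to 4-leaf (2-18 cm) plants postemergence.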

[2] = system: velvetleaf (Abutilon theophrasti); assay: Test B pre-/postemergence plant response; details: for Velvetleaf plant response rating: 8 g ai/ha
Summary of the method: as §1

[3] = system: large crabgrass (Digitaria sanguinalis); assay: Test B pre-/postemergence plant response; details: for Crabgrass, Large plant response rating: 8 g ai/ha
Summary of the method: as §1

[4] = system: Italian ryegrass (Lolium multiflorum); assay: Test B pre-/postemergence plant response; details: for Ryegrass, Italian plant response rating: 8 g ai/ha
Summary of the method: as §1

[5] = system: johnsongrass (Sorghum halepense); assay: Test B pre-/postemergence plant response; details: for Johnsongrass plant response rating: 8 g ai/ha
Summary of the method: as §1

[6] = system: pigweed (Amaranthus retroflexus); assay: Test B pre-/postemergence plant response; details: for Pigweed plant response rating: 8 g ai/ha
Summary of the method: as §1

[7] = system: lambsquarters (Chenopodium album); assay: Test B pre-/postemergence plant response; details: for Lambsquarters plant response rating: 8 g ai/ha
Summary of the method: as §1

[8] = system: goosegrass (Eleusine indica); assay: Test B pre-/postemergence plant response; details: for Goosegrass plant response rating: 8 g ai/ha
Summary of the method: as §1

soybean (Glycine max) = assay: Test B pre-/postemergence plant response; details: for Soybean plant response rating: 8 g ai/ha
Summary of the method: as §1

[9] = system: morningglory (Ipomoea coccinea); assay: Test B pre-/postemergence plant response; details: for Morningglory plant response rating: 8 g ai/ha
Summary of the method: as §1

[10] = system: bermudagrass (Cynodon dactylon); assay: Test B pre-/postemergence plant response
Summary of the method: as §1

kochia (Kochia scoparia) = assay: Test B pre-/postemergence plant response; details: for Plant response rating, Kochia: Postemergence
Summary of the method: as §1

[11] = Flood (flooded paddy test), 62 g ai/ha, scale 0 to 100, 0 no effect, 100 complete control
[12] = Flood (flooded paddy test), 250 g ai/ha, scale 0 to 100, 0 no effect, 100 complete control
[13] = Preemergence, 16 g ai/ha, scale 0 to 100 (0 no effect, 100 complete control)
[14] = Preemergence, 31 g ai/ha, 0 to 100 scale, 0 no effect, 100 complete control
[15] = Preemergence, 62 g ai/ha, scale 0 to 100
[16] = Postemergence, 16 g ai/ha, scale 0 to 100
[17] = Postemergence, 31 g ai/ha, scale 0 to 100
[18] = Postemergence, 62 g ai/ha, scale 0 to 100, 0 no effect, 100 complete control
[19] = 8 g ai/ha, postemergence, 0-100 scale
[20] = Oryza sativa, Flood (flooded paddy test), 250 g ai/ha, scale 0 to 100, 0 no effect, 100 complete control, read-out: Plant response rating, Rice
[21] = Oryza sativa, Flood, 62 g ai/ha, scale 0 to 100, read-out: Plant response rating, Rice

Cc1cc(-c2ccc(C(F)(F)F)cc2)nn1-c1c(O)c(C(C)C)nn(C)c1=O [Compound 27]
Plant response rating, Rice (rice (Oryza sativa); [11]): 0
Plant response rating, Rice (rice (Oryza sativa); Flood (flooded paddy test), 125 g ai/ha, scale 0 to 100, 0 no effect, 100 complete control): 0
Plant response rating, Rice (rice (Oryza sativa); [12]): 0
Plant response rating, Rice (rice (Oryza sativa); Flood, 31 g ai/ha, scale 0 to 100): 0
Plant response rating, Foxtail, Giant [1, 13]: 0
Plant response rating, Foxtail, Giant [1, 14]: 0
Plant response rating, Foxtail, Giant [1, 15]: 20
Foxtail, Giant plant response rating ([1]; Preemergence, scale 0 to 100): 0
Plant response rating, Velvetleaf [2, 13]: 0
Plant response rating, Velvetleaf [2, 14]: 0
Plant response rating, Velvetleaf [2, 15]: 0
Velvetleaf plant response rating ([2]; Preemergence, scale 0 to 100): 0
Plant response rating, Crabgrass, Large [3, 13]: 0
Plant response rating, Crabgrass, Large [3, 14]: 0
Plant response rating, Crabgrass, Large [3, 15]: 0
Crabgrass, Large plant response rating ([3]; Preemergence, scale 0 to 100): 0
Plant response rating, Ryegrass, Italian [4, 13]: 0
Plant response rating, Ryegrass, Italian [4, 14]: 70
Plant response rating, Ryegrass, Italian [4, 15]: 95
Ryegrass, Italian plant response rating ([4]; Preemergence, scale 0 to 100): 0
Plant response rating, Johnsongrass [5, 13]: 40
Plant response rating, Johnsongrass [5, 14]: 75
Plant response rating, Johnsongrass [5, 15]: 85
Johnsongrass plant response rating ([5]; Preemergence, scale 0 to 100): 0
Plant response rating, Pigweed [6, 13]: 0
Plant response rating, Pigweed [6, 14]: 0
Plant response rating, Pigweed [6, 15]: 0
Pigweed plant response rating ([6]; Preemergence, scale 0 to 100): 0
Plant response rating, Lambsquarters [7, 13]: 0
Plant response rating, Lambsquarters [7, 15]: 0
Lambsquarters plant response rating ([7]; Preemergence, scale 0 to 100): 0
Plant response rating, Goosegrass [8, 13]: 75
Plant response rating, Goosegrass [8, 14]: 95
Plant response rating, Goosegrass [8, 15]: 95
Goosegrass plant response rating ([8]; Preemergence, scale 0 to 100): 0
Plant response rating, Soybean (soybean (Glycine max); [13]): 0
Plant response rating, Soybean (soybean (Glycine max); [14]): 0
Plant response rating, Soybean (soybean (Glycine max); [15]): 0
Soybean plant response rating (soybean (Glycine max); Preemergence, scale 0 to 100): 0
Plant response rating, Morningglory [9, 13]: 0
Plant response rating, Morningglory [9, 14]: 0
Plant response rating, Morningglory [9, 15]: 0
Morningglory plant response rating ([9]; Preemergence, scale 0 to 100): 0
Plant response rating, Bermudagrass [10, 13]: 0
Plant response rating, Bermudagrass [10, 14]: 100
Plant response rating, Bermudagrass [10, 15]: 100

Cc1nn(C)c(=O)c(-n2nc(-c3ccc(Cl)cc3)cc2Cl)c1O [Compound 59]
Plant response rating, Rice (rice (Oryza sativa); [11]): 10
Plant response rating, Rice (rice (Oryza sativa); [12]): 25
Foxtail, Giant plant response rating ([1]; postemergence, 0-100 scale): 80
Plant response rating, Foxtail, Giant [1, 16]: 85
Plant response rating, Foxtail, Giant [1, 17]: 90
Plant response rating, Foxtail, Giant [1, 18]: 95
Velvetleaf plant response rating ([2]; postemergence, 0-100 scale): 0
Plant response rating, Velvetleaf [2, 16]: 0
Plant response rating, Velvetleaf [2, 17]: 0
Plant response rating, Velvetleaf [2, 18]: 0
Crabgrass, Large plant response rating ([3]; postemergence, 0-100 scale): 20
Plant response rating, Crabgrass, Large [3, 16]: 45
Plant response rating, Crabgrass, Large [3, 17]: 55
Plant response rating, Crabgrass, Large [3, 18]: 60
Ryegrass, Italian plant response rating ([4]; postemergence, 0-100 scale): 80
Plant response rating, Ryegrass, Italian [4, 16]: 80
Plant response rating, Ryegrass, Italian [4, 17]: 85
Plant response rating, Ryegrass, Italian [4, 18]: 85
Johnsongrass plant response rating ([5]; postemergence, 0-100 scale): 0
Plant response rating, Johnsongrass [5, 16]: 0
Plant response rating, Johnsongrass [5, 17]: 60
Plant response rating, Johnsongrass [5, 18]: 80
Kochia plant response rating (kochia (Kochia scoparia); [19]): 0
Plant response rating, Kochia (kochia (Kochia scoparia); 16 g ai/ha, scale 0 to 100): 0
Plant response rating, Kochia (kochia (Kochia scoparia); 31 g ai/ha, scale 0 to 100): 0
Plant response rating, Kochia (kochia (Kochia scoparia); 62 g ai/ha, scale 0 to 100, 0 no effect, 100 complete control): 0
Pigweed plant response rating ([6]; postemergence, 0-100 scale): 0
Plant response rating, Pigweed [6, 16]: 0
Plant response rating, Pigweed [6, 17]: 0
Plant response rating, Pigweed [6, 18]: 0
Lambsquarters plant response rating ([7]; postemergence, 0-100 scale): 0
Plant response rating, Lambsquarters [7, 16]: 0
Plant response rating, Lambsquarters [7, 17]: 0
Plant response rating, Lambsquarters [7, 18]: 0
Goosegrass plant response rating ([8]; postemergence, 0-100 scale): 0
Plant response rating, Goosegrass [8, 16]: 0
Plant response rating, Goosegrass [8, 17]: 0
Plant response rating, Goosegrass [8, 18]: 0
Soybean plant response rating (soybean (Glycine max); postemergence, 0-100 scale): 0
Plant response rating, Soybean (soybean (Glycine max); [16]): 0
Plant response rating, Soybean (soybean (Glycine max); [17]): 0
Plant response rating, Soybean (soybean (Glycine max); [18]): 0
Morningglory plant response rating ([9]; postemergence, 0-100 scale): 0
Plant response rating, Morningglory [9, 16]: 0
Plant response rating, Morningglory [9, 17]: 0
Plant response rating, Morningglory [9, 18]: 0
Bermudagrass plant response rating [10, 19]: 0
Plant response rating, Bermudagrass [10, 16]: 0
Plant response rating, Bermudagrass [10, 17]: 0
Plant response rating, Bermudagrass [10, 18]: 20

Cc1cc(-c2ccc(Br)cc2)nn1-c1c(O)cnn(C2CCCCO2)c1=O (centres unmarked) [Compound 77, 4-[3-(4-bromophenyl)-5-methyl-1H-pyrazol-1-yl]-5-hydroxy-2-(tetrahydro-2H-pyran-2-yl)-3(2H)-pyridazinone]
plant injury at 62 g/ha (rice (Oryza sativa); Oryza sativa, Flood (flooded paddy test), 62 g ai/ha, scale 0 to 100, 0 no effect, 100 complete control, read-out: Plant response rating, Rice): 0%
plant injury at 125 g/ha (rice (Oryza sativa); Oryza sativa, Flood (flooded paddy test), 125 g ai/ha, scale 0 to 100, 0 no effect, 100 complete control, read-out: Plant response rating, Rice): 0%
plant injury at 250 g/ha (rice (Oryza sativa); [20]): 0%
plant injury at 31 g/ha (rice (Oryza sativa); Oryza sativa, Flood, 31 g ai/ha, scale 0 to 100, read-out: Plant response rating, Rice): 0%

Cc1cn(-c2ccc(C(F)(F)F)cc2)nc1-c1c(O)cnn(C)c1=O [Compound 85, 5-hydroxy-2-methyl-4-[4-methyl-1-[4-(trifluoromethyl)phenyl]-1H-pyrazol-3-yl]-3(2H)-pyridazinone]
plant injury at 250 g/ha (rice (Oryza sativa); [20]): 0%
plant injury at 62 g/ha (rice (Oryza sativa); [21]): 0%

Cn1ncc(O)c(-c2nn(-c3ccc(C(F)(F)F)cc3)cc2Br)c1=O [Compound 87, 4-[4-bromo-1-[4-(trifluoromethyl)phenyl]-1H-pyrazol-3-yl]-5-hydroxy-2-methyl-3(2H)-pyridazinone]
plant injury at 250 g/ha (rice (Oryza sativa); [20]): 0%
plant injury at 62 g/ha (rice (Oryza sativa); [21]): 0%
